Laboratory results: BindingDB's records for PubMed 25825497 (Eli Lilly)

How the values were obtained:
[1] = target: Mitogen-activated protein kinase kinase kinase 7 (TAK1/MAP3K7) (Homo sapiens) (UniProt O43318); experiment: Inhibition of human TAK1 by discoverX kinome scan assay
[2] = target: Mitogen-activated protein kinase kinase kinase 12 (DLK/MAP3K12) (Homo sapiens) (UniProt Q12852); experiment: Inhibition of human DLK by discoverX kinome scan assay
[3] = target: Serine/threonine-protein kinase PRP4 homolog (PRPF4B) (Homo sapiens) (UniProt Q13523); experiment: Inhibition of human PRP4 by discoverX kinome scan assay
Serine/threonine-protein kinase PRP4 homolog (PRPF4B) (Homo sapiens), sequence (Q13523 whole entry, looked up): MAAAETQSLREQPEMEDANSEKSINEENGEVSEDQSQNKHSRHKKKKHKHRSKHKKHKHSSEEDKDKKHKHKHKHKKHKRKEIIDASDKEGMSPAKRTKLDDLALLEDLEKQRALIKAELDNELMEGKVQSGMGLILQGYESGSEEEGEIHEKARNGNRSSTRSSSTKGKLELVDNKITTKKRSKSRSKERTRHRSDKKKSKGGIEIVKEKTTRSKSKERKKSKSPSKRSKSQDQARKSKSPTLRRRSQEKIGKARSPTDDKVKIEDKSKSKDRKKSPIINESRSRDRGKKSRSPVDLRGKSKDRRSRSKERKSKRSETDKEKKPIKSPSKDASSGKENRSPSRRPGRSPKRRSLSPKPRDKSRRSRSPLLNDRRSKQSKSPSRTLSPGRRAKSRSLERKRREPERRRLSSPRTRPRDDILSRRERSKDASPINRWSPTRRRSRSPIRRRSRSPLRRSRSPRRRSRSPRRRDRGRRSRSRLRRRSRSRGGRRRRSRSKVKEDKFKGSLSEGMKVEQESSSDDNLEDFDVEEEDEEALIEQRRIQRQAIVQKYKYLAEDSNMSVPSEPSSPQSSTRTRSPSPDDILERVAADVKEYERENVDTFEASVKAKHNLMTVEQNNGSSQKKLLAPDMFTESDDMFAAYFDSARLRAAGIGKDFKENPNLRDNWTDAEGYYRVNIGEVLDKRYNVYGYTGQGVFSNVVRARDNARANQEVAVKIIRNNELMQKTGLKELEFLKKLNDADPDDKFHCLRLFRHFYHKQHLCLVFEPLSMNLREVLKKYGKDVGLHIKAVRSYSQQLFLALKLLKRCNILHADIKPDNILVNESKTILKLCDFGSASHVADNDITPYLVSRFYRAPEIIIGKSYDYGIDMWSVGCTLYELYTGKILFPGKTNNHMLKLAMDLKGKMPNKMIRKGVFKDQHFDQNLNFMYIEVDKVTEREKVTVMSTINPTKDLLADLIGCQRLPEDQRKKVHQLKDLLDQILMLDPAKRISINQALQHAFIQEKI

[4] = target: Serine/threonine-protein kinase OSR1 (OXSR1) (Homo sapiens) (UniProt O95747); experiment: Inhibition of human OSR1 by discoverX kinome scan assay
Serine/threonine-protein kinase OSR1 (OXSR1) (Homo sapiens), sequence (O95747 whole entry, looked up): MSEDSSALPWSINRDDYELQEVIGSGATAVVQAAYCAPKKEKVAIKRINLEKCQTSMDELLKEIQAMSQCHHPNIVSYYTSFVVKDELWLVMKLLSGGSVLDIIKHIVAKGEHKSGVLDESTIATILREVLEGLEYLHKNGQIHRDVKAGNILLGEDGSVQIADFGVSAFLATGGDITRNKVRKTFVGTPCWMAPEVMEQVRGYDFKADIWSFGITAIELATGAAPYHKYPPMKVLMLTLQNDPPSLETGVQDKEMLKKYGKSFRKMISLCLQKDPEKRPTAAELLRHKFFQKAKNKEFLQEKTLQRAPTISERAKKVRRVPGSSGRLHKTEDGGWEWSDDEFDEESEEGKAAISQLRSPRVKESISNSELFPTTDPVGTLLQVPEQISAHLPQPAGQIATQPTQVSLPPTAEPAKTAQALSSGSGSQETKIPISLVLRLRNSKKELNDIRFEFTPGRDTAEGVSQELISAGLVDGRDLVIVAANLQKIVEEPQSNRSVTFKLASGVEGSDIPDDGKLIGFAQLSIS

Measured: IC50

Mitogen-activated protein kinase kinase kinase 12 (DLK/MAP3K12) (Homo sapiens), sequence (Q12852 whole entry, looked up): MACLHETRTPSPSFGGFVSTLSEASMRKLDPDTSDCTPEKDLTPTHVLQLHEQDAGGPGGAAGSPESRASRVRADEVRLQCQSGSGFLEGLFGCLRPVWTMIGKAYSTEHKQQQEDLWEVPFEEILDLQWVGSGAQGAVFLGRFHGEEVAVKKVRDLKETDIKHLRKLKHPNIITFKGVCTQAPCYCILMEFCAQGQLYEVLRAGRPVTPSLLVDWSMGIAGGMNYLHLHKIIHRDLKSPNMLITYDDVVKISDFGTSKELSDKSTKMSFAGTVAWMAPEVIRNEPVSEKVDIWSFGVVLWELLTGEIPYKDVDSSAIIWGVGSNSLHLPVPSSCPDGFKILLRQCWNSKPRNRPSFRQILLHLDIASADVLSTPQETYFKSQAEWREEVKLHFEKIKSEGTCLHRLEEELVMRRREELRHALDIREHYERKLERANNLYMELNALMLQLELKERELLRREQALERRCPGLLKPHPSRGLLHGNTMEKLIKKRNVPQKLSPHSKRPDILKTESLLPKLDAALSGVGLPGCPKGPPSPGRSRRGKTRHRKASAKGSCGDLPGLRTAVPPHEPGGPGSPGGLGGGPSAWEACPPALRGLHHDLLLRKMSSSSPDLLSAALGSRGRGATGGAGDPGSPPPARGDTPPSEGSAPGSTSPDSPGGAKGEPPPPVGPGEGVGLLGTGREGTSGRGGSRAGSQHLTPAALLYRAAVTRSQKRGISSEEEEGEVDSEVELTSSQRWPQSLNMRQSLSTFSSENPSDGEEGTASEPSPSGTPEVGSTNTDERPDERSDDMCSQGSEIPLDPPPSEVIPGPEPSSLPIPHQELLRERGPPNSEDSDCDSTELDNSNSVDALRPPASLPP
Mitogen-activated protein kinase kinase kinase 7 (TAK1/MAP3K7) (Homo sapiens), sequence (O43318 whole entry, looked up): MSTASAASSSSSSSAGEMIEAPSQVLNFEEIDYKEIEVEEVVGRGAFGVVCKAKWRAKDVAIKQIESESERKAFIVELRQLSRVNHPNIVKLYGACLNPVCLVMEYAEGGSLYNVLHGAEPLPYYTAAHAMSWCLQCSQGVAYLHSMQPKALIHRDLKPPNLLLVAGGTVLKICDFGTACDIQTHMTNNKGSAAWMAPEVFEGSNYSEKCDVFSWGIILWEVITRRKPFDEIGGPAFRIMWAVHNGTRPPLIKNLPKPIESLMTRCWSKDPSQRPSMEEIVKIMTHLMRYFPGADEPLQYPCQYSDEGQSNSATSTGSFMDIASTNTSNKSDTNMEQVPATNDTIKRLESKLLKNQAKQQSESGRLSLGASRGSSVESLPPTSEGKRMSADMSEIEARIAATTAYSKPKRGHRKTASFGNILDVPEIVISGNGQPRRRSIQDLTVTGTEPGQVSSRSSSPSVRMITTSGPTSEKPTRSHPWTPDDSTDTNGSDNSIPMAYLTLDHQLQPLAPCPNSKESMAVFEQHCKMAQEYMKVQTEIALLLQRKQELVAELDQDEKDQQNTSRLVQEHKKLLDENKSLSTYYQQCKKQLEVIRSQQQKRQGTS

Cc1cn(CCN2CCN(c3ccccc3-c3cc(C#N)cc(C(=O)NCCCN4CCCC4)c3)CC2)c2ccccc12
> 20 µM: all assays above
